pKi: −log10 of the molar value. Values joined by “and” are separate entries in the source; they are usually repeats but may differ in a detail not shown here. Equal entries are not always repeated. “Also recorded” adds a separate entry of the source. Where two headings read alike, the source gives them in different places.
Experiments:
[1] = test system: A. sinicus hairy root lines; assay: Quantitative root growth test of A. sinicus hairy root lines with 5MT; assay type: cell-based
Experimental: Hairy roots were weighed to determine fresh weight, and these samples were dried for 12 h at […] before dry weight determination.
Since expression of the feedback-insensitive ASA2 gene should increase resistance to the Trp analog 5MT as shown previously with E. coli (Song et al., 1998), a quantitative root growth test was used to assess the extent of 5MT resistance of the transformed hairy root lines. Transformed roots were grown for 6 weeks with 0, 10, 15, 20, 25, 30, 40, 50, 75 and 100 μM 5MT in both MS liquid and solid medium, respectively (FIGS. 18A to 18C and FIGS. 19A and 19B).

[2] = test system: E. coli trpE5972; assay: Complementation and inhibition tests in trpE mutant E. coli; assay type: cell-based; conditions: no Trp
Experimental: The pQES61K was transformed into a trpE nonsense (trpE 5972) mutant E. coli. The trpE nonsense mutant E. coli (trpE 5972) transformed with an expression vector itself (Vector) and the ASA2 cDNA ligated into the expression vector (ASA2) were plated on the M9 minimal medium containing, isopropyl-thiogalactoside (IPTG, 0.1 mM) and ampicillin (100 μg/ml) and either with Trp (+Trp, FIG. 5A) or without Trp (−Trp, FIG. 5B). The complemented strain grew well on M9 medium without Trp and also with 300 μM 5MT (FIG. 5C) which inhibits the growth of the complemented strain carrying feedback-sensitive plant AS (Bohlmann et al., Plant Physiol., 111: 507-514, 1996).
The chimeric constructs were transformed into trpE mutant E. coli (trpE5972, nonsense mutant) using CaCl2 transformation (Sambrook et al., 1989, supra). Complemented strains were plated on M9 minimal medium containing ampicillin (100 μg/ml) and isopropylthiogalactoside (IPTG, 0.1 mM), but no Trp. For the inhibition test, 300 μM 5MT was added to the minimal medium described previously. FIGS. 16A and 16B were taken two days after streaking.

[3] = test system: soybean hairy root lines; assay: Quantitative root growth test of soybean hairy root lines with 5MT; assay type: cell-based; conditions: solid medium, 8 weeks; compared with A. sinicus
Experimental: The soybean (cv. Williams 82) cotyledons from 4 to 6-day-old-seedlings were harvested and wounded with a scalpel previously-dipped into an overnight culture of the A. rhizogenes strain K599. Cotyledons were inoculated by cutting the adaxial face several times to form a checked wound site and the abaxial side was placed on sterile distilled water partially immersed filter paper and incubated as described above. Three days after inoculation, cotyledons were transferred to medium containing Murashige and Skoog basal minerals and B5 organics (Gamborg, O. L., et al. Expt. Cell. Res. 50: 148-151, 1968) solidified with 3 g/1 Gellan gum (Kelko, Division of Merck) (MXB medium) in 100×25 mm petri dishes. To inhibit the growth of bacteria and to select transformed roots, 500 mg/l of carbenicillin disodium and 200 mg/l kanamycin were added to the MXB medium. After hairy roots developed from wounded cotyledons,. single root tips (2-3 cm) were excised and used to establish bacteria-free root clones by subculture to fresh MXB solid medium grown at 28° C. in the dark. […]
Large numbers of kanamycin resistant root lines were produced from soybean cotyledons transformed with pBIN-ASA2 and a quantitative root growth test was also performed to assess the extent of 5MT resistance of the transformed hairy root lines. […]

[4] = test system: A. sinicus seedlings; assay: Direct selection of hairy root lines from A. sinicus seedlings; assay type: cell-based
Experimental: Four to seven day old seedlings of A. sinicus with roots removed were then fully immersed in the 1 day cultured bacterial suspension in a petri dish for 10 min, wiped with sterilized filter paper and then placed on partially water immersed filter paper and incubated under 16 h light ([…] m-2 s-1, cool white fluorescent lamps). Three days after co-cultivation, plants were transferred to Murashige and Skoog (Murashige, T., & Skoog, F. Physiol. Plant. 15:473-497, 1962), MS, medium solidified with 3g/l Gellan Gum containing 500 mg/l of carbenicillin disodium and 75 mg/l kanamycin.
Since the A. sinicus hairy root lines initially selected for kanamycin-resistance but which were also transformed with the feedback-insensitive ASA2 cDNA show resistance to growth inhibition by 5MT (FIG. 18), we wanted to determine if direct selection could be done for A. sinicus hairy root line formation on medium containing 5MT (FIGS. 21A and 21B). Transformation of A. sinicus seedlings with DC-AR2 harboring pBIN-ASA2 gave rise to hairy root line formation on medium containing 0, 15, 20, 25, 30 and 40 μM 5MT but inhibition occurred at 50, 75 and 100 μM.

[5] = target: T1, Arabidopsis ASA1 (Arabidopsis thaliana, UniProt P32068); assay: Feedback inhibition assay of Arabidopsis ASA1 expressed in E. coli; assay type: biochemical, A. thaliana; conditions: 100 μM and lower concentrations of Trp; crude E. coli cell extract
T1 construct: made in house; host or cells: E. coli JM109
T1 sequence (P32068 55-595): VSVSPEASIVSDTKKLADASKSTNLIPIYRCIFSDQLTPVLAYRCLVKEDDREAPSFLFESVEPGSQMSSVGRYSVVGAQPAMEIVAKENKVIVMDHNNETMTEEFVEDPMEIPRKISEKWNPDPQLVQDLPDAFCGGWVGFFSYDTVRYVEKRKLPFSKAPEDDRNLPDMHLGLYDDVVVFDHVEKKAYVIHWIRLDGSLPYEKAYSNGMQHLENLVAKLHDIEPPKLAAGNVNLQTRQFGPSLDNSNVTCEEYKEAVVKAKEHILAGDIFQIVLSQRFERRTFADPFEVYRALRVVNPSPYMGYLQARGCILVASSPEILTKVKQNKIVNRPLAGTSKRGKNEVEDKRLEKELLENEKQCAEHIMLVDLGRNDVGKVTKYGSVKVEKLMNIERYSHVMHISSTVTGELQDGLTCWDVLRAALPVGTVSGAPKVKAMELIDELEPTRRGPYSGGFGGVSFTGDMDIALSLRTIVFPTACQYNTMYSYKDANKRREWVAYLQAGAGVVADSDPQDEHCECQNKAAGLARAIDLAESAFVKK
Experimental: The tobacco ASA2 gene was expressed in E. coli strain trpE5972, a mutant line containing a nonsense trpE gene, grown to late log phase on Luria Bertani medium with 100 μM Trp. Expression was induced by addition of 100 μM isopropylthiogalactoside. A protease inhibitor, 135 μM phenylmethylsulfonylfluoride (PMSF), was added with further incubation for three hours at 30° C., 150 rpm. The cells were collected by centrifugation and resuspended in 50 mM Tris, 5 mM MgCl2, 100 mM NH4Cl, 2 mM dithiothreitol, 20% glycerol, pH 8.0 plus 100 μM PMSF and disrupted using a French press (2 passes, 20,000 psi). Cell debris was removed by centrifugation and the supernatant treated with Ni-affinity resin. Bound protein was eluted with […] imidazole in pH 6.3 buffer. The Arabidopsis ASA1 gene was similarly expressed except that the E. coli strain JM109 was used and enzyme activity in a crude cell extract without Ni-affinity purification was characterized.
Enzyme activity was measured with and without Trp in 50 mM Tris, 5 mM M?gCl2, 1 mM EDTA, 100 mM NH4Cl, 2 mM dithiothreitol, 20% glycerol, pH 7.8 plus 100 μM chorismate. Anthranilate produced in; 30 min at 30° C. was extracted using ethyl acetate and fluorescence measured at excitation 340 and emission 400.

[6] = test system: AS; assay: AS activity in extracts of tobacco suspension cultured cells, inhibition by Trp; assay type: biochemical, N. tabacum; conditions: 100 μM Trp; original 5MT-resistant cell lines
[7] = test system: AS; conditions: cited from earlier work; for pKi: read-out: apparent Ki for Trp
[8] = target: tobacco ASA2; conditions: ASA2 expressed in E. coli; read-out: apparent Ki for Trp; cited from earlier work
[9] = target: anthranilate synthase; assay: AS activity in extracts of A. sinicus hairy root lines, inhibition by Trp; assay type: biochemical; conditions: control lines; Trp concentration causing 50% inhibition; NH4Cl as second substrate; read-out: apparent Ki for Trp
Experimental: Extracts were prepared using a Tenbroeck tissue grinder (Kontes Glass Co., Vineland, N.J.), and the ASA1 extraction buffer (2 ml/g tissue) described by Bernasconi and coworkers (Bernasconi, P., et al., Plant Physiol., 106: 353-358, 1994). After removal of cellular debris by centrifugation (10 min at 35,000 × g and 4° C.), one volume of the supernatant was combined with two volumes of room temperature saturated (NH4)2SO4, and then centrifuged as before. The resulting pellet was resuspended in extraction buffer (1 ml/g tissue) and used immediately. When glutamine was used as the second substrate for the AS catalyzed reaction, the resuspended enzyme solution was desalted using Sephadex G25 to remove residual (NH4)2SO4.
AS activity was measured as described in Song et al. (1998, supra) except the assay buffer was that described by Bernasconi et al. (1994, supra) without NH4Cl in the buffer. Either 100 mM NH4Cl or 10 mM glutamine was added to the assay mixture to determine α-subunit activity or AS holoenzyme activity, respectively.

[10] = test system: tobacco ASA2; assay: Feedback inhibition assay of tobacco ASA2 expressed in E. coli; assay type: biochemical, N. tabacum; conditions: partially purified ASA2 expressed in E. coli
Experimental: The tobacco ASA2 gene was expressed in E. coli strain trpE5972, a mutant line containing a nonsense trpE gene, grown to late log phase on Luria Bertani medium with 100 μM Trp. Expression was induced by addition of 100 μM isopropylthiogalactoside. A protease inhibitor, 135 μM phenylmethylsulfonylfluoride (PMSF), was added with further incubation for three hours at 30° C., 150 rpm. The cells were collected by centrifugation and resuspended in 50 mM Tris, 5 mM MgCl2, 100 mM NH4Cl, 2 mM dithiothreitol, 20% glycerol, pH 8.0 plus 100 μM PMSF and disrupted using a French press (2 passes, 20,000 psi). Cell debris was removed by centrifugation and the supernatant treated with Ni-affinity resin. Bound protein was eluted with 100 μM imidazole in pH 6.3 buffer.

[11] = target: altered AS (Arabidopsis thaliana, UniProt P32068, D341N); conditions: 100 μM Trp; cited from earlier work
Sequence of altered AS (P32068 55-595 D341N): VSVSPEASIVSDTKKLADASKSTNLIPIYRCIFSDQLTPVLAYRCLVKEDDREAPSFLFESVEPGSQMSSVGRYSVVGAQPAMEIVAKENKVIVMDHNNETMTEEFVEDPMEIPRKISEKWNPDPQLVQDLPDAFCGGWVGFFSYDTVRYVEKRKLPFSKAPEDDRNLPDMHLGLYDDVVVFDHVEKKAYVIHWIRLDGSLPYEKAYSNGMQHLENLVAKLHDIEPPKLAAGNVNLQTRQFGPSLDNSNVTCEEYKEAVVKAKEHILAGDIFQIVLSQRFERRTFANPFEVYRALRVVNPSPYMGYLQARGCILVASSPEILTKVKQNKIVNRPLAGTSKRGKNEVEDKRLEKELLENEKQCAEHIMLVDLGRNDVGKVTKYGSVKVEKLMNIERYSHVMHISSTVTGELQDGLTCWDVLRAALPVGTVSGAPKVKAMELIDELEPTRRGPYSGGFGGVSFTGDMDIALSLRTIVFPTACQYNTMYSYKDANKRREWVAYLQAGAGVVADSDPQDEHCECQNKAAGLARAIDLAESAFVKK

[12] = control hairy root lines, 6 weeks
[13] = seedlings transformed with DC-AR2 harboring pBIN-ASA2

## Cc1ccc2[nH]cc(C[C@H](N)C(=O)O)c2c1 [5MT, 5-methyltryptophan]
[1]; [12]
  5MT concentration inhibiting hairy root growth: 10 to 20 µM
  5MT concentration of almost complete inhibition: ≥ 30 µM
[1]; control hairy root lines, liquid medium
  5MT concentration at which lines turned brown and died: ≥ 20 µM
[1]; transformed lines A-7, 8, 9, 10 and 20, liquid medium
  5MT concentration at which lines grew: up to 100 μM
[1]; transformed lines A-7, 8, 9, 10 and 20, maximum concentration tested
  5MT concentration at which lines are able to grow: up to 100 μM
[2]; site-directed mutagenized ASA2 alone, 10 μM 5MT
  Growth on minimal medium with 5MT: could not grow
[2]; strain transformed with ASA2 cDNA, 300 μM 5MT
  Growth on minimal medium with 5MT: grew well; also recorded: not inhibited
[2]; strain transformed with site-directed mutant (Ser107, Gln108), 300 μM 5MT
  Growth on minimal medium with 5MT: did not grow
[3]
  Sensitivity of hairy root lines to 5MT inhibition: more sensitive to 5MT inhibition than those of A. sinicus
[4]
  5MT concentration for effective direct selection of 35S-ASA2 transformed roots: 15 to 40 µM
[4]; control roots, DC-AR2, subculture
  5MT concentration at which roots turned brown and died: ≥ 15 µM
[4]; control, transformed with DC-AR2
  5MT concentration at which no hairy root lines were formed: ≥ 25 µM
[4]; [13]
  5MT concentration allowing hairy root line formation: ≤ 40 µM
  5MT concentration at which inhibition of hairy root formation occurred: ≥ 50 µM

## N[C@@H](Cc1c[nH]c2ccccc12)C(=O)O [Trp, tryptophan]
[5]
  Inhibition of Arabidopsis ASA1 gene product by Trp: completely inhibited
[6]
  enzyme activity of the feedback-insensitive ASA2: 50%
[7]; 900 μM Trp, 5MT-selected tobacco cells overexpressing ASA2, also AB15-12-1
  AS activity remaining: 20%
[7]; extracts of 5MT-resistant tobacco suspension cultured cells
  pKi: 3.52
[7]; extracts of wild-type tobacco suspension cultured cells
  pKi: 5.70
[8]
  pKi: 4.00
[9]
  pKi: 5.70 and 5.52
[10]
  AS activity remaining at 100 μM Trp: 50%
[11]
  AS inhibition by Trp: 95%

Source: patent publication US6563025B1, “Nucleotide sequences encoding anthranilate synthase” (Board of Trustees of the University of Illinois, priority 1996, dated 2003)
